How the values were obtained:
H1N1 virus = format: cell-based, influenza A H1N1 virus
[1] = tested on: Primary human blood macrophages; experiment: Cell viability test (MTT); settings: 100 uM
H5N1 virus = format: cell-based, influenza A H5N1 virus
MDCK cells = experiment: Cell viability test (MTT); settings: 100 uM
dihydrofolic reductase = target: T1, dihydrofolic reductase (Homo sapiens, UniProt P00374); settings: Baker and Jordaan, J. Med. Chem. 1965; cited from earlier work
T1 sequence (P00374 1-187): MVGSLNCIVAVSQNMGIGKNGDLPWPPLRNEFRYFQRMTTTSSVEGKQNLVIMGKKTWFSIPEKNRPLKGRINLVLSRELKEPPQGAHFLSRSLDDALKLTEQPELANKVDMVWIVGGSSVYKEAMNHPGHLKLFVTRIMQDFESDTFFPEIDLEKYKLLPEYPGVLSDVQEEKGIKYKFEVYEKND

[2] = tested on: Avian influenza H5N1 virus, A/Vietnam/1203/04; format: cell-based
[3] = tested on: human influenza H1N1 virus, A/HK/54/98; format: cell-based

SMILES | level of H1N1 viruses on the surface of MDCK cells (H1N1 virus) | degree of cytotoxicity (MTT, OD560-OD670 of sample / DMSO) ([1]; 72 hours, primary human blood macrophages, relative to DMSO) | cytotoxicity (in words) ([1]; primary macrophages, compared with DMSO) | level of H5N1 viruses on the surface of MDCK cells (H5N1 virus) | degree of cytotoxicity (MTT, OD560-OD670 of sample / DMSO) (MDCK cells; 72 hours, relative to DMSO) | cytotoxicity (in words) (MDCK cells; compared with DMSO) | inhibition of dihydrofolic reductase (dihydrofolic reductase) | inhibition of replication of H5N1 virus (in words) [2] | inhibition of replication of H1N1 virus (in words) [3] | H5N1 virus titer [2]
Cc1nc(N)nc(O)c1CCCNc1ccc(/C=C/C(=O)CCl)cc1 [NSC#89853, 4-(4-((3-(2-amino-4-hydroxy-6-methyl-5-pyrimidinyl)propyl)amino)phenyl)-1-chloro-3-buten-2-one] | lower | 1.1 | does not display cytotoxicity | lower | 2.2 | does not display cytotoxicity | inhibitor | inhibits the replication | inhibits the replication | –
CCOC(=O)C1=C[C@@H](OC(CC)CC)[C@H](NC(C)=O)[C@@H](N)C1 [oseltamivir, reference compound] | lower | – | – | lower | – | – | – | – | – | 2.46 × 10^6 TCID50/ml
